Earlier results as cited in patent publication US12310930B2 (YS PHARMTECH, priority 2016, dated 2025).
Like-named read-outs stand apart in the source and are kept apart here.

In the case of `CNCC(O)c1ccc(O)c(O)c1` (single isomer, unassigned; (-)) [epinephrine, (−)-3,4-Dihydroxy-α-[(methylamino)methyl]benzyl alcohol], the “association constant (K)” value (pH 3.5, aqueous solution) is listed as 488 M⁻¹ and the “association constant (K)” value (pH 5.5, aqueous solution) is listed as 111 M⁻¹.
